Measured values reported in PMC8375990, “The flavin monooxygenase Bs3 triggers cell death in plants, impairs growth in yeast and produces H2O2 in vitro” (PLoS ONE, 2021).

Experiments:
Bs3 [1] = target: T1, Bs3 (Capsicum annuum, UniProt A8TVP6); assay: UV-vis spectrum of purified protein; format: binding; conditions: FAD added to lysis buffer; co-purified
T1 construct: gene T459_32270; Gateway recombination site and the two N-terminal methionines deleted
T1 sequence (A8TVP6 3-342): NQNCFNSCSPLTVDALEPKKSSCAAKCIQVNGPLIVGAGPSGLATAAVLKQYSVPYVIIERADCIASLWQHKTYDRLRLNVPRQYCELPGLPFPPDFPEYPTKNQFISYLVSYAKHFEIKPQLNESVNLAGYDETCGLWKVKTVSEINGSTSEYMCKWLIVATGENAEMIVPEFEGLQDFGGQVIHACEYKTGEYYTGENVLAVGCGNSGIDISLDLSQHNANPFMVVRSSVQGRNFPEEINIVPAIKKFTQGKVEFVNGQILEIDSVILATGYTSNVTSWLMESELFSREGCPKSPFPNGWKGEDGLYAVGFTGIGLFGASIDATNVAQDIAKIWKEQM

Bs3 [2] = target: T2, Bs3 (Capsicum annuum, UniProt A8TVP6, S211A); assay: UV-vis spectrum of purified protein; format: binding; conditions: FAD added to lysis buffer; co-purified
T2 construct: gene T459_32270; Gateway recombination site and the two N-terminal methionines deleted

Bs3 [3] = target: T1, Bs3; assay: NADPH oxidation, decrease of absorbance at […] nm; format: biochemical

T2 sequence (A8TVP6 entry or part of it S211A): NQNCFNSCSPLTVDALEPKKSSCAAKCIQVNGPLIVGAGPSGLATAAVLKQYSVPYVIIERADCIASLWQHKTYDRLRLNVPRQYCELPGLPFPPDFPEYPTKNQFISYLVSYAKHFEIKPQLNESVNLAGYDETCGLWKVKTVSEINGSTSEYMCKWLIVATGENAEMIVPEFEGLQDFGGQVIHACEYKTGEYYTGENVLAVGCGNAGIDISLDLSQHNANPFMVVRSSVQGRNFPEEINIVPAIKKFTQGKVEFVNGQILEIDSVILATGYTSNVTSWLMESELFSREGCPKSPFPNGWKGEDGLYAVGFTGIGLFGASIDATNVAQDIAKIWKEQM

inhibition at 50 µM (Bs3 [3])	Compound	UV-vis spectrum of purified protein (Bs3 [1])	UV-vis spectrum of purified protein (Bs3 [2])
	Cc1cc2nc3c(=O)[nH]c(=O)nc-3n(C[C@H](O)[C@H](O)[C@H](O)COP(=O)(O)OP(=O)(O)OC[C@H]3O[C@@H](n4cnc5c(N)ncnc54)[C@H](O)[C@@H]3O)c2cc1C [FAD]	purified Bs3 and Bs3S211A proteins were bright yellow and the UV-vis spectra show characteristic peaks	purified Bs3 and Bs3S211A proteins were bright yellow and the UV-vis spectra show characteristic peaks
95%	Sc1nnc(-c2ccc(Cl)cc2)[nH]1 [yucasin]		
79%	Cn1cc[nH]c1=S [methimazole]		
